The values that follow come from patent US12384818B2, “Cyclin-dependent kinase 5 (CDK5) inhibitory peptides” (Massachusetts Institute of Technology, priority 2017, dated 2025).

Ends that are not written are not given here. Peptide text beside a SMILES is read from it. * marks the point of attachment. FITC = O=C1OC2(c3ccc(O)cc3Oc3cc(O)ccc32)c2ccc(NC(=S)*)cc21; Ahx = NCCCCCC(=O)O

A short description of data set [1]: Blood brain barrier penetration in mice, targeted mass spectrometry of brain lysate. It is filed as in vivo. As to conditions: 24 hours; for #Spec (number of spectra) / Area (peak area): tryptic fragment in brain lysate, mice 40 mg/kg i.p. The protocol:
Wild type mice were intraperitoneally injected with a single dose (40 mg/kg) of Cdk5i, and were sacrificed 24 hours after the injection. Prior to extracting the brain, mice were transcardially perfused with 40 mL of cold phospho-buffered saline (PBS) to ensure clearance of any Cdk5i circulating in the blood that may not have crossed the blood brain barrier. After the perfusion, the brains were dissected into two hemispheres and one hemisphere was lysed with cold lysis buffer (RIPA) to extract total protein. Total protein was then briefly run on a 12% acrylamide gel to separate large proteins and then digested with a trypsin enzyme and subjected to targeted mass spectrometry analysis using Cdk5i peptide sequence of SEQ ID NO. 3 linked to a GGG spacer/linker and FITC (Cdk5i sequence: FITC-GGG-SEQ ID NO. 3).
A substantial portion (11 amino acids out of 12) of the Cdk5i sequence including the conjugated tat protein sequence were detected using mass spectrometry based on the number of spectra and peak area. Using targeted mass spectrometry, brain lysate from mice injected with Cdk5i show an enrichment for Cdk5i based on # of spectra and peak area (2nd row of data in Table 1).

For data set [2], the system named is Human iPSC-derived neural progenitor cells. As to conditions: 1 μM, 2 hr; FIG. 9B.

As for “R.CYSYGRK.K: tryptic fragment of Cdk5i-Tat detected in mouse brain lysate by mass spectrometry”, in data set [1], the “#Spec (number of spectra)” value came to 12 and the “Area (peak area)” value was 6.13E+08.
As for “R.AFGIPVRCYSYGR.K: tryptic fragment of Cdk5i-Tat detected in mouse brain lysate by mass spectrometry”, in data set [1], the “#Spec (number of spectra)” value is reported as 22 and the “Area (peak area)” value is 8.42E+08.
With ARAFGIPVR, in data set [1], the “#Spec (number of spectra)” value came out at 12 and the “Area (peak area)” value is given as 3.83E+07.
For ARAFGIPVRCYS [CDK5i], in data set [1] (wild type mice, single dose 40 mg/kg intraperitoneally, perfused brain, mass spectrometry), the “portion of the Cdk5i sequence detected in brain” value was 11 amino acids out of 12. Besides, the “blood brain barrier penetration / enrichment in brain lysate” value in data set [1] (wild type mice, single dose 40 mg/kg intraperitoneally, targeted mass spectrometry) is on record as “enrichment”.
Take `CC[C@H](C)[C@H](NC(=O)CNC(=O)[C@H](Cc1ccccc1)NC(=O)[C@H](C)NC(=O)[C@H](CCCNC(=N)N)NC(=O)[C@H](C)NC(=O)CCCCCNC(=S)Nc1ccc2c(c1)C(=O)OC21c2ccc(O)cc2Oc2cc(O)ccc21)C(=O)N1CCC[C@H]1C(=O)N[C@H](C(=O)N[C@@H](CCCNC(=N)N)C(=O)N[C@@H](CS)C(=O)N[C@@H](Cc1ccc(O)cc1)C(=O)N[C@@H](CO)C(=O)N[C@@H](Cc1ccc(O)cc1)C(=O)NCC(=O)N[C@@H](CCCNC(=N)N)C(=O)N[C@@H](CCCCN)C(=O)N[C@@H](CCCCN)C(=O)N[C@@H](CCCNC(=N)N)C(=O)N[C@@H](CCCNC(=N)N)C(=O)N[C@@H](CCC(N)=O)C(=O)N[C@@H](CCCNC(=N)N)C(=O)N[C@@H](CCCNC(=N)N)C(=O)N[C@@H](CCCNC(=N)N)C(=O)O)C(C)C` [FITC-Ahx-Cdk5i-Tat] ({FITC-Ahx}-ARAFGIPVRCYSYGRKKRRQRRR-OH): the “penetration of plasma membrane (intracellular FITC signals)” value in data set [2] was “able to penetrate plasma membrane”.
